The record followed here is ChEMBL document CHEMBL4414576, “Recent advancements in mechanistic studies and structure activity relationship of FoF1 ATP synthase inhibitor as antimicrobial agent” (Eur J Med Chem, 2019).

As a reminder, the IC50 is the midpoint of a concentration-inhibition curve. A high value points to weaker potency.

This experiment deals with Mycobacterium tuberculosis variant bovis. Nature of the experiment: Antimicrobial activity against Mycobacterium bovis after 1 to 5 days by two-fold dilution. The class given is functional, organism-based.

Structures are written as SMILES.

`FC(F)(F)Oc1cccc(CNCCNC2C3CC4CC(C3)C2C4)c1` (stereo unspecified) had an IC50 of 1250 nM.
